Measurements: patent US8716350B2, “Compositions and methods for the treatment of somatosensory disorders” (Algynomics Inc., priority 2010, dated 2014)
Entries after “also recorded” stand apart in the source; their conditions may differ. Where two headings read alike, the source gives them in different places.

Legend:
[1] = molecular target: T1, ADRB3 (Homo sapiens, UniProt P13945); format: cell-based; details: cells transfected with ADRB3
T1 construct: expressed in transfected cells; host or cells: HEK-293 co-expressing GloSensor-22F

[2] = molecular target: ADRB1 (Homo sapiens, UniProt P08588); details: cells transfected with ADRB1
[3] = system: thermal thresholds; test: Radiant heat paw-withdrawal test (acute nociception); format: in vivo, CD-1 (ICR:Crl) mice; details: high dose; 20 min post-injection
Procedure: All behavioral experiments were performed on naive, adult (6-12 weeks of age) CD-1 (ICR:Crl) mice of both sexes that were bred in-house from breeders obtained from Charles River (Boucherville, QC). All mice were housed with their same-sex littermates (two to four animals per cage) in standard shoebox cages, maintained in a temperature-controlled (20±1° C.) environment (14/10 h light/dark cycle), and fed (Harlan Teklad 8604) and watered ad libitum. Mice were placed on glass floor within small Plexiglas cubicles as described above, and a focused high-intensity projector lamp beam was directed from below onto the mid-plantar surface of the hind paw (Hargreaves et al., 1988). The commercial device (IITC Model 336) was set to 20% active intensity. Latency to withdraw from the stimulus was measured to the nearest 0.1 s. Baseline measurements consisted of testing both hind paws twice on three separate occasions separated by at least 30 min. Following drug administration both hind paws were only tested once at the indicated time point.

[4] = system: mechanical allodynia evoked by spared nerve injury; test: Spared nerve injury, von Frey test; format: in vivo, CD-1 (ICR:Crl) mice; details: 60 mg/kg; 7 days postoperatively
Procedure: All behavioral experiments were performed on naive, adult (6-12 weeks of age) CD-1 (ICR:Crl) mice of both sexes that were bred in-house from breeders obtained from Charles River (Boucherville, QC). All mice were housed with their same-sex littermates (two to four animals per cage) in standard shoebox cages, maintained in a temperature-controlled (20±1° C.) environment (14/10 h light/dark cycle), and fed (Harlan Teklad 8604) and watered ad libitum. The up-down method of Dixon (1965) was used. Mice were placed on a perforated metal floor (with 5-mm diameter holes placed 7 mm apart) within small Plexiglas cubicles (9×5×5 cm high), and a set of eight calibrated von Frey fibers (Stoelting Touch Test Sensory Evaluator Kit #2 to #9; ranging from ≈0.015 g to ≈1.3 g of force) were applied to the plantar surface of the hind paw until the fibers bowed and then held for 3 s. The threshold force required to elicit withdrawal of the paw (median 50% withdrawal) was determined twice on each hind paw (and averaged) for all baseline measurements (except for the spared nerve injury experiments), with sequential measurements separated by at least 20 min. Following drug administration, one measurement per hind paw was taken at the indicated time point. […]

[5] = system: λ-carrageenan thermal and mechanical allodynia; test: Carrageenan hyperalgesia (radiant heat and von Frey); format: in vivo, CD-1 (ICR:Crl) mice
Procedure: All behavioral experiments were performed on naive, adult (6-12 weeks of age) CD-1 (ICR:Crl) mice of both sexes that were bred in-house from breeders obtained from Charles River (Boucherville, QC). All mice were housed with their same-sex littermates (two to four animals per cage) in standard shoebox cages, maintained in a temperature-controlled (20±1° C.) environment (14/10 h light/dark cycle), and fed (Harlan Teklad 8604) and watered ad libitum. The up-down method of Dixon (1965) was used. Mice were placed on a perforated metal floor (with 5-mm diameter holes placed 7 mm apart) within small Plexiglas cubicles (9×5×5 cm high), and a set of eight calibrated von Frey fibers (Stoelting Touch Test Sensory Evaluator Kit #2 to #9; ranging from ≈0.015 g to ≈1.3 g of force) were applied to the plantar surface of the hind paw until the fibers bowed and then held for 3 s. The threshold force required to elicit withdrawal of the paw (median 50% withdrawal) was determined twice on each hind paw (and averaged) for all baseline measurements (except for the spared nerve injury experiments), with sequential measurements separated by at least 20 min. Following drug administration, one measurement per hind paw was taken at the indicated time point. Mice were placed on glass floor within small Plexiglas cubicles as described above, and a focused high-intensity projector lamp beam was directed from below onto the mid-plantar surface of the hind paw (Hargreaves et al., 1988). The commercial device (IITC Model 336) was set to 20% active intensity. Latency to withdraw from the stimulus was measured to the nearest 0.1 s. Baseline measurements consisted of testing both hind paws twice on three separate occasions separated by at least 30 min. Following drug administration both hind paws were only tested once at the indicated time point. λ-Carrageenan (2%; 20 mg/ml; Sigma) was suspended by sonication in saline, and injected subcutaneously in a volume of 20 μl into the left plantar hindpaw using a 100 μL1 microsyringe with a 30-gauge needle. Mice were tested for thermal and mechanical sensitivity of both hind paws using the radiant heat paw withdrawal and von Frey tests before and 3 h post carrageenan injection. All drugs were injected immediately following the test for carrageenan hyperalgesia at the 3 h time point, and post-drug measurements were taken at 20, 40 and 60 min.

[6] = system: mechanical thresholds; test: Von Frey test (acute nociception); format: in vivo, CD-1 (ICR:Crl) mice; details: 10, 30, 60 mg/kg
Procedure: All behavioral experiments were performed on naive, adult (6-12 weeks of age) CD-1 (ICR:Crl) mice of both sexes that were bred in-house from breeders obtained from Charles River (Boucherville, QC). All mice were housed with their same-sex littermates (two to four animals per cage) in standard shoebox cages, maintained in a temperature-controlled (20±1° C.) environment (14/10 h light/dark cycle), and fed (Harlan Teklad 8604) and watered ad libitum. The up-down method of Dixon (1965) was used. Mice were placed on a perforated metal floor (with 5-mm diameter holes placed 7 mm apart) within small Plexiglas cubicles (9×5×5 cm high), and a set of eight calibrated von Frey fibers (Stoelting Touch Test Sensory Evaluator Kit #2 to #9; ranging from ≈0.015 g to ≈1.3 g of force) were applied to the plantar surface of the hind paw until the fibers bowed and then held for 3 s. The threshold force required to elicit withdrawal of the paw (median 50% withdrawal) was determined twice on each hind paw (and averaged) for all baseline measurements (except for the spared nerve injury experiments), with sequential measurements separated by at least 20 min. Following drug administration, one measurement per hind paw was taken at the indicated time point.

[7] = system: rotarod performance; details: for ataxia on the rotarod test (in words): 60 mg/kg, 20-80 min after injection; for ED50 for maximal ataxia: 60 min following drug administration, interval in parentheses
[8] = system: formalin-induced pain; test: Formalin test (5% formalin, intraplantar), Example 6; format: in vivo, CD-1 (ICR:Crl) mice; details: 95% confidence interval in parentheses; for ED50: Mus musculus
[9] = in vivo; details: mouse
[10] = system: hind paw formalin test; test: Hind paw formalin test (2.5% formaldehyde), Example 2; format: in vivo, mice; details: for late phase, C-fiber mediated responses (paw licking): late/tonic phase, last 50 minutes
[11] = system: cells transfected with only Sport6 vector without inserts; test: GloSensor cAMP assay, cells transfected with only Sport6 vector without inserts; format: cell-based
[12] = molecular target: T2, ADRB2 (Homo sapiens, UniProt P07550); test: GloSensor cAMP-sensitive luciferase reporter assay, HEK-293 cells transfected with ADRB2; format: cell-based
T2 construct: expressed in transfected cells; host or cells: HEK-293 co-expressing GloSensor-22F

[13] = 60 mg/kg, up to 60 min post-injection
[14] = 0-10 min post-injection of formalin
[15] = 10-60 min post-injection of formalin
[16] = S-ALG 517 60, 90 mg/kg, R-ALG 517 60, 90, 120 mg/kg, propranolol 10, 30, 60 mg/kg

T1 sequence (P13945 whole entry, species assumed): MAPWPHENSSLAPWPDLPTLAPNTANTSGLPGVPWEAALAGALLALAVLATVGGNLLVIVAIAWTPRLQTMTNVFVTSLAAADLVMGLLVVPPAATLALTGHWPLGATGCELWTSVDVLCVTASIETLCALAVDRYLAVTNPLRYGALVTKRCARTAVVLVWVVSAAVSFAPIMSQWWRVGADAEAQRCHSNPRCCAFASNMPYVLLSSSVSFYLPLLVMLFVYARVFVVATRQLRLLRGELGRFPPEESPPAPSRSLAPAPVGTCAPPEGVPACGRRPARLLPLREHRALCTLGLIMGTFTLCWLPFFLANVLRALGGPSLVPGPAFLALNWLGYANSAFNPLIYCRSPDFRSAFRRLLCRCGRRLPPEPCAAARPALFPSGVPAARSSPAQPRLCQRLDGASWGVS
Chain of ADRB1 (P08588 whole entry, species assumed): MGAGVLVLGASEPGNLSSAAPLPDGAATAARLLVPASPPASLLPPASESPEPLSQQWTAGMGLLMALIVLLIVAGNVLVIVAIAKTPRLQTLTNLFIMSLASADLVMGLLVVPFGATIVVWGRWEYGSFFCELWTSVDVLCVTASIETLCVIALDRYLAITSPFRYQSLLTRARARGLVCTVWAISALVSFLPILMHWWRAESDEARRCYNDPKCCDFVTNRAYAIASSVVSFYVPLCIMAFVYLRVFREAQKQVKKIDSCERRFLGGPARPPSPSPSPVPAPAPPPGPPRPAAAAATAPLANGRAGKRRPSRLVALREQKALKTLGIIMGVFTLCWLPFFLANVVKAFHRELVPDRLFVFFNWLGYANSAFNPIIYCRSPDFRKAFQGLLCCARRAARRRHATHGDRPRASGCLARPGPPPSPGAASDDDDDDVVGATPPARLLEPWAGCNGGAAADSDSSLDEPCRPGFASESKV

Q: Which results are given for Cc1ccc(OCC(O)C(C)NC(C)C)c2c1CCC2 (centres unmarked) [ICI118,551, 3-(isopropylamino)-1-[(7-methyl-4-indanyl)oxy]butan-2-ol]?
A: blockade of morphine stimulation of cAMP ([1]; antagonist 300 nM): no blockade; blockade of morphine stimulation of cAMP ([2]; antagonist 300 nM): partial blockade

Q: With Cc1ccc(Cl)c(OC[C@H](O)CNC(C)(C)C)c1 [R-ALG 517, R-tert-butyl[3-(2-chloro-5-methylphenoxy)-2-hydroxypropyl]amine] as the compound, how does the “thermal thresholds on the radiant heat test” value [3] read?
A: The value was “increased thermal thresholds”.

Q: And the “reversal of mechanical allodynia evoked by spared nerve injury” value [4]?
A: The value was “reversed”.

Q: What about the “reversal of thermal hyperalgesia” value ([5]; 10 mg/kg) of the same compound?
A: The value was “transient reversal”.

Q: What about the “reversal of mechanical hyperalgesia” value ([5]; 30 mg/kg) of the same compound?
A: The value was “transient reversal”.

Q: And the “reversal of thermal hyperalgesia” value ([5]; 30 mg/kg)?
A: The value was “transient reversal”.

Q: What about the “reversal of mechanical hyperalgesia” value [5, 13] of the same compound?
A: Its value is “complete and sustained”.

Q: What about the “reversal of thermal hyperalgesia” value [5, 13] of the same compound?
A: Its value is “complete and sustained”.

Q: And the “mechanical thresholds on the von Frey test” value [6]?
A: The value was “no effect”.

Q: And the “ataxia / sedation on rotarod over the doses tested (in words)” value ([7]; mouse, in vivo)?
A: Its value is “does not produce significant ataxia”.

Q: And the ED50 ([8]; 0-10 min post-injection of formalin, read-out: half-maximal analgesic dose (ED50), Early Phase)?
A: The ED50 was 46 mg/kg.

Q: And the ED50 ([8]; 10-60 min post-injection of formalin, read-out: half-maximal analgesic dose (ED50), Late Phase)?
A: Its ED50 is 26.6 mg/kg.

Q: And the ED50 at 60 min [9]?
A: The ED50 at 60 min was 166 mg/kg.

Q: What about the “late phase, C-fiber mediated responses (paw licking)” value ([10]; 10 mg/kg) of the same compound?
A: Its value is “reduced”.

Q: And the “early, A-delta mediated phase responses (paw licking)” value ([10]; early/acute phase, first 5 min)?
A: The value was “not altered”.

Q: Which “half-maximal analgesic dose (ED50), Early Phase” value [8, 14] does the source give for CC(C)NC[C@@H](O)COc1cccc2ccccc12 [R-propranolol] here?
A: Its value is “not calculable”.

Q: What about the “half-maximal analgesic dose (ED50), Late Phase” value [8, 15] of the same compound?
A: Its value is “not calculable”.

Q: With Cc1ccc(Cl)c(OC[C@@H](O)CNC(C)(C)C)c1 [S-ALG 517, S-tert-butyl[3-(2-chloro-5-methylphenoxy)-2-hydroxypropyl]amine] as the compound, how does the “ataxia on the rotarod test (in words)” value [7] read?
A: The value was “only slight and possibly not even significant ataxia”.

Q: And the “ED50 for maximal ataxia” value [7]?
A: Its value is 74 mg/kg.

Q: And the “ataxia / sedation on rotarod over the doses tested (in words)” value [7, 16]?
A: Its value is “produce sedation at much lower doses”.

Q: What about the “half-maximal analgesic dose (ED50), Early Phase” value [8, 14] of the same compound?
A: Its value is “not calculable”.

Q: What about the “half-maximal analgesic dose (ED50), Late Phase” value [8, 15] of the same compound?
A: Its value is “not calculable”.

Q: And the “responses to the hind paw formalin test” value ([10]; 3 mg/kg)?
A: Its value is “without effect”.

Q: What about the “responses to the hind paw formalin test” value ([10]; 10 mg/kg) of the same compound?
A: Its value is “without effect”.

Q: For CC(C)NCC(O)COc1cccc2ccccc12 (centres unmarked) [S-Propranolol], which “half-maximal analgesic dose (ED50), Early Phase” value [8, 14] is on record?
A: The value was 35 mg/kg.

Q: What about the “half-maximal analgesic dose (ED50), Late Phase” value [8, 15] of the same compound?
A: The value was 25.46 mg/kg.

Q: For CN1CC[C@]23c4c5ccc(O)c4O[C@H]2[C@@H](O)C=C[C@H]3[C@H]1C5 [morphine], which “intracellular cAMP accumulation” value [1] is on record?
A: The value was “dose-dependent increases”.

Q: What about the “intracellular cAMP accumulation” value [2] of the same compound?
A: Its value is “dose-dependent increases”.

Q: What about the cAMP response [11] of the same compound?
A: Its cAMP response is “did not evoke responses”.

Q: What about the “ADRB2 agonist potency in comparison with other agonists (in words)” value [12] of the same compound?
A: The value was “most potent ADRB2 agonist”.

Q: What about the “agonist potency at ADRB2 as compared to ADRB1 and ADRB3” value [12] of the same compound?
A: The value was 500-1000 times.

Q: And the “agonist stimulation of cAMP production” value [12]?
A: The value was “stimulated cAMP production; also recorded: dose-dependent increases”.

Q: And the “intrinsic activity at ADRB2 as compared to ADRB1 and ADRB3” value [12]?
A: Its value is “about 10 times”.

Q: What does the source list for CC(C)NCC(O)COc1cccc2ccccc12 (centres unmarked) [propranolol]?
A: ataxia on the rotarod test (in words) [7]: fall off the rotarod very rapidly; ED50 for maximal ataxia [7]: 4.76 mg/kg; ataxia / sedation on rotarod over the doses tested (in words) [7, 16]: produce sedation at much lower doses; half-maximal analgesic dose (ED50), Early Phase ([8]; 0-10 min post-injection of formalin, listed as racemic propranolol): 33 mg/kg; half-maximal analgesic dose (ED50), Late Phase ([8]; 10-60 min post-injection of formalin, listed as racemic propranolol): 21.3 mg/kg; late phase, C-fiber mediated responses (paw licking) ([10]; 10 mg/kg): reduced

Q: For dynorphin A, which “agonist stimulation of cAMP production” value [12] is on record?
A: The value was “showed agonistic properties”.
